# Assay results as given in patent publication US8048869B2, “Pharmaceutical composition for use in hormone replacement therapy” (Pantarhei Bioscience B.V., priority 2001, dated 2011).
# What was measured:
# [1] = tested on: ovariectomized rats; experiment: Vaginal cornification bioassay in ovariectomized rats, 7 days, sc or po; type: in vivo, rat
# Source text: Uterine weight increase in the rat is more commonly used as a measure of estrogenicity. […] In the early 1920s it was discovered that follicular fluid from the pig ovary contained a factor(s) that caused cornification/keratinization of the vaginal epithelium in the rat (Allen and Doisy, 1923, JAMA, 81, 819-821; Allen and Doisy, 1924, Am. J. Physiol., 69, 577-588). The so-called vaginal cornification response in rats subsequently provided a bioassay for testing estrogenicity. Vaginal epithelial cornification/keratinization in ovariectomized rats can be produced only by compounds considered to be true estrogens (Jones et al, 1973, Fert. Steril. 24, 284-291). […] Adult intact female CD rats were ovariectomized to induce estrogen deficiency. […] Castrate vaginal smears are indicative that complete ovariectomy was achieved. Treatment commenced following completion of the 7 days of smearing (day 0=first day of dosing). Animals were dosed, once daily for 7 consecutive days. Daily vaginal lavages continued to be obtained for 7 days after dosing was initiated in order to detect vaginal cornification, as an indication of an estrogenic response. A drop of vaginal washings was placed on a glass slide and examined by light microscopy to detect the presence or absence of cornified epithelial cells. Vaginal lavages were obtained prior to dosing on days 0-6 and prior to necropsy on day 7. […]
# [2] = tested on: nonpregnant ewes; settings: intravenously administered; cited from earlier work
# [3] = tested on: ovariectomized rats; experiment: Modified 7-day vaginal cornification bioassay with uterine wet weight; type: in vivo, rat; settings: OVX rats, po, 7 days
# Source text: Uterine weight increase in the rat was chosen as another relevant tissue-specific endpoint to determine the hormonal potency of estetrol (E4), particularly in relationship to its hormonal potency to induce vaginal cornification and to correct for vaginal atrophy. Orally (po) administered E4 was therefore tested in a modified 7-day vaginal cornification bioassay (see also example 1), including uterine wet weight measurements at necropsy, to account for vaginal and uterotrophic effects.
# The uterotrophic response has been used for many years to assess estrogenic activity. The typical bioassay uses female rats with low levels of endogenous estrogens (e.g., ovariectomized adults or immature animals). In most assay designs the animals are dosed once or twice daily for 3 or 4 days, and twenty-four hours after the final dose the animals are killed, and the uteri excised and weighed. In the current bioassay, vaginal epithelial cornification, and uterine weight gain was evaluated in ovariectomized adult rats over a 7-day period. In this way, two distinct estrogen sensitive parameters could be evaluated concurrently.
# Adult intact female CD rats were ovariectomized to induce estrogen deficiency. […] Castrate vaginal smears are indicative that complete ovariectomy was achieved. […] Animals were orally dosed, once daily for 7 consecutive days with vehicle control (10% ethanol/sesame oil) or either 0.1, 0.3, 1.0, or 3.0 mg/kg/day E4. Daily vaginal lavages continued to be obtained for 7 days after dosing was initiated in order to detect vaginal cornification, as an indication of an estrogenic response. A drop of vaginal washings was placed on a glass slide and examined by light microscopy to detect the presence or absence of cornified epithelial cells. The cells present in the vaginal washings were recorded. Vaginal lavages were obtained prior to dosing on days 0-6 and prior to necropsy on day 7.
# On Study Day 7, following vaginal lavage 24 hours after the final dose, all rats were euthanized by CO2 asphyxiation. An abdominal incision was made and the uterus excised, blotted and weighed. The occurrence of vaginal cornification, indicative of an estrogenic response, is an “all or none” response. Therefore, data were expressed as the number of rats showing a vaginal estrogenic response (for one or more days) over the number of rats treated (ratio). A Z-test of proportions was used to compare the four test groups to the vehicle control group. Group means±SEM were also calculated for the uterine weights. […] Therefore, a Kruskal-Wallis non-parametric ANOVA on ranks was performed and significant differences across the four treatment groups and the vehicle control were determined using Dunn's method.
# [4] = tested on: OVX-rats; experiment: Endometrial proliferation after 4-week oral treatment (uterine weight, Ki67); type: in vivo, rat; settings: 0.5 to […], 4 weeks (FIG. 5)
# Source text: Endometrial proliferation was chosen as another relevant tissue-specific endpoint to determine the hormonal potency of estetrol after chronic (4-week), oral treatment in ovariectomized rats. An established 4-week animal model, also recommended for evaluation of agents for osteoporosis prevention and therapy, was used. […] 17α-ethinyl-estradiol (EE) and vehicle (1% ethanol/arachidis oil) served as additional controls in this bioassay.
# Three months old female Sprague-Dawley rats were either sham-operated (Sham) or ovariectomized (OVX) one day prior to commencement of the dosing study as described in Example 2. Ten animals per treatment group were orally dosed once per day for four consecutive weeks. The dosing commenced 1 day after surgical removal of the ovaries and was administered by oral gavage using a syringe and stainless steel gavage needle at doses of 0.1 mg/kg /day EE, or either 2.5 or 0.5 mg/kg/day E4. Vehicle control was daily administered to one group of OVX-animals and sham-operated rats. After treatment, anesthetized rats were subjected to cardiac puncture and asphyxiated by CO2 inhalation. The uterine horns were isolated and weighed and then fixed in 4% formaldehyde at 4° C. […] Proliferative indices were determined by scoring positively labeled cells on Ki67 immunostained sections. Typically, for each datapoint 1000 luminal epithelial cells were evaluated.
compound,measurement,setting,value
"C[C@]12CC[C@@H]3c4ccc(O)cc4CC[C@H]3[C@@H]1[C@@H](O)[C@@H](O)[C@@H]2O [E4, 1,3,5 (10)-estratrien-3,15α,16α,17β-tetrol]",Number of Rats Exhibiting Estrogenic Response/Number of Rats Treated,"[1]; 1.0 mg/kg/day, Day 7, 1 mg/kg/day",all rats
same,Number of Rats Exhibiting Estrogenic Response/Number of Rats Treated,"[1]; 3.0 mg/kg/day, Day 7, 3 mg/kg/day",all rats
same,potency in uterine vasodilation relative to estriol and 17β-estradiol,[2],15 to 30 times less potent
same,Uterine weight Mean,[3]; 0.1 mg/kg/day,149.2 mg
same,Uterine weight Significantly different from vehicle (P < 0.05),[3]; 0.1 mg/kg/day,no
same,Vaginal Cornification Non-responders,[3]; 0.1 mg/kg/day,0
same,Vaginal Cornification Significantly different from vehicle (P < 0.05),[3]; 0.1 mg/kg/day,yes
same,Vaginal Cornification responders,[3]; 0.1 mg/kg/day,8
same,Uterine weight Mean,[3]; 0.3 mg/kg/day,181.2 mg
same,Uterine weight Significantly different from vehicle (P < 0.05),[3]; 0.3 mg/kg/day,no
same,Vaginal Cornification Non-responders,[3]; 0.3 mg/kg/day,0
same,Vaginal Cornification Significantly different from vehicle (P < 0.05),[3]; 0.3 mg/kg/day,yes
same,Vaginal Cornification responders,[3]; 0.3 mg/kg/day,8
same,Uterine weight Mean,[3]; 1.0 mg/kg/day,253.7 mg
same,Uterine weight Significantly different from vehicle (P < 0.05),[3]; 1.0 mg/kg/day,yes
same,Vaginal Cornification Non-responders,[3]; 1.0 mg/kg/day,0
same,Vaginal Cornification Significantly different from vehicle (P < 0.05),[3]; 1.0 mg/kg/day,yes
same,Vaginal Cornification responders,[3]; 1.0 mg/kg/day,8
same,Uterine weight Mean,[3]; 3.0 mg/kg/day,308.4 mg
same,Uterine weight Significantly different from vehicle (P < 0.05),[3]; 3.0 mg/kg/day,yes
same,Vaginal Cornification Non-responders,[3]; 3.0 mg/kg/day,0
same,Vaginal Cornification Significantly different from vehicle (P < 0.05),[3]; 3.0 mg/kg/day,yes
same,Vaginal Cornification responders,[3]; 3.0 mg/kg/day,8
same,"percentage of Ki67-positive luminal epithelial cells, dose trend",[4],declined with increasing doses
